Data set [1] can be described thus: Standard murine pharmacokinetic model (plasma and brain AUC). Format: in vivo. The settings on record: CL57 BL/6 mice, single IV injection 10 mg/kg, brain homogenate. As for the experimental part: Several compounds disclosed herein were evaluated in a standard murine pharmacokinetic model. […] Three mice in each group were used for blood and brain collection at each time point. […] The brain of each animal was collected after the final blood collection. The whole tissue was harvested, excised and rinsed by saline, dried by filter paper, and then placed into one tube per tissue per animal. All samples were stored at −20° C. until bioanalysis. Compound concentrations in plasma and brain homogenate were determined using a high performance liquid chromatography/mass spectrometry (HPLC/MS/MS) method (Agilent 1100 series HPLC, AB Inc. API4000 triple-quadrupole with an ESI interface and Analyst 1.4 software). Results in the form of area under the time-versus-concentration curve (AUC) are given below in Table 10.

A further data set has as its target MLK3 (Homo sapiens (Human), UniProt Q16584). Briefly: Radiometric filter plate MLK3 assay. The settings on record: 2 μM cold ATP (Km), 1 μM inactive MKK7b, twenty minute incubation; read-out: MK3 IC50. Format: biochemical. As for the experimental part: After a twenty minute incubation, the reactions were washed through filter plates and read on a scintillation counter. Results are shown in Table 9 below, in which +++ indicates ≤0.1 μM, ++ indicates >0.1 μM and ≤1 μM, and + indicates >1 μM.

pIC50: −log10 of the molar value.

MLK3, sequence (Q16584 whole entry): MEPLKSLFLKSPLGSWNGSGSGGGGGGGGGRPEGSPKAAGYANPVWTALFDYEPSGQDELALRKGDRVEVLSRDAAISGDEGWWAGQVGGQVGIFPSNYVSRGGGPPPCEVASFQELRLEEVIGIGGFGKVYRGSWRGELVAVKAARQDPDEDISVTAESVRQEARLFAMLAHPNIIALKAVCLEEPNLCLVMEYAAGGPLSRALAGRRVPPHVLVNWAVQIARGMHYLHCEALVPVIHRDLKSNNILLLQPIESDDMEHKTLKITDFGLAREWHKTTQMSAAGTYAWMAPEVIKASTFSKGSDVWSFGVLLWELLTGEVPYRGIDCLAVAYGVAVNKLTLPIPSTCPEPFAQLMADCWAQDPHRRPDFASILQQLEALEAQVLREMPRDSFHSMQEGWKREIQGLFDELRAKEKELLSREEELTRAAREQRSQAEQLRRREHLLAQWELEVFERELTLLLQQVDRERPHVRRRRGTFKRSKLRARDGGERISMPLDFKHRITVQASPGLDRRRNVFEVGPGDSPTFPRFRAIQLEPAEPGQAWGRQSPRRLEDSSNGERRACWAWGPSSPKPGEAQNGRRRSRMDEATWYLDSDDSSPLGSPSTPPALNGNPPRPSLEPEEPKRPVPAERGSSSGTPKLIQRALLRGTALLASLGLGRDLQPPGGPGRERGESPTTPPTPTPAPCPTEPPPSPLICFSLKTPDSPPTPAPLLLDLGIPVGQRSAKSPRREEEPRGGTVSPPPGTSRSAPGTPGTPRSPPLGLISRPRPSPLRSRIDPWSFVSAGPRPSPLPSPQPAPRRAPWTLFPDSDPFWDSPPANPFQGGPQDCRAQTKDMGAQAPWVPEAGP

`Nc1ccc(-c2cnc3[nH]cc(-c4ccc5[nH]ccc5c4)c3c2)cn1` [Example 4, 5-(3-(1H-indol-5-yl)-1H-pyrrolo[2,3-b]pyridin-5-yl)pyridin-2-amine]: the “AUC Brain” value in data set [1] is recorded as “− (− indicates <500)”. Further, the pIC50 at MLK3 is greater than 7.00.
As to `CN1CCN(Cc2ccc(-c3cnc4[nH]cc(-c5ccc6[nH]ccc6c5)c4c3)cc2)CC1` [Example 32, 3-(1H-indol-5-yl)-5-(4-((4-methylpiperazin-1-yl)methyl)phenyl)-1H-pyrrolo[2,3-b]pyridine], the “AUC Brain” value in data set [1] was “+ (+ indicates ≥500)”.
As to `COc1cc(-c2cnc3[nH]cc(-c4cnc(N)nc4)c3c2)cc(OC)c1OC` [Example 17, 5-(5-(3,4,5-trimethoxyphenyl)-1H-pyrrolo[2,3-b]pyridin-3-yl)pyrimidin-2-amine], the “AUC Brain” value in data set [1] was “− (− indicates <500)”. At MLK3, the negative logarithm of the IC50 (pIC50) is greater than 7.00.
`COc1cc(-c2cnc3[nH]cc(-c4ccc5[nH]ccc5c4)c3c2)cc(OC)c1OC` [Example 1, 3-(1H-indol-5-yl)-5-(3,4,5-trimethoxyphenyl)-1H-pyrrolo[2,3-b]pyridine]: the “AUC Brain” value in data set [1] is “+ (+ indicates ≥500)”.
For `Nc1ncc(-c2cnc3[nH]cc(-c4ccc5[nH]ccc5c4)c3c2)cn1` [Example 9, 5-(3-(1H-indol-5-yl)-1H-pyrrolo[2,3-b]pyridin-5-yl)pyrimidin-2-amine], in data set [1], the “AUC Brain” value is on record as “+ (+ indicates ≥500)”. For the same compound, on MLK3, the negative-log IC50 (pIC50) is greater than 7.00.
`COc1cc(-c2cnc3[nH]c(=O)n(C4CCCC4)c3n2)cc(OC)c1OC` [Example 74, 1-cyclopentyl-6-(3,4,5-trimethoxyphenyl)-1H-imidazo[4,5-b]pyrazin-2(3H)-one]: the pIC50 on MLK3 is greater than 7.00.
Turning to `COc1cc(-c2cc3c(-c4ccc(C(N)=O)cc4)c[nH]c3[n+]([O-])c2)cc(OC)c1OC` [Example 154, 4-[7-oxy-5-(3,4,5-trimethoxy-phenyl)-1H-pyrrolo[2,3-b]pyridin-3-yl]-benzamide], the negative-log IC50 (pIC50) at MLK3 was 6.00 to 7.00.
`COc1cc(-c2cnc3c(c2)C(Cc2cccnc2)C(=O)N3)cc(OC)c1OC` (stereo not shown) [Example 135, 3-pyridin-3-ylmethyl-5-(3,4,5-trimethoxy-phenyl)-1,3-dihydro-pyrrolo[2,3-b]pyridin-2-one]: the negative-log IC50 (pIC50) on MLK3 is less than 6.00.
The same measure, in the same setting: the value for `CC(=O)N1CCN(Cc2ccc(-c3cnc4[nH]cc(-c5ccc6[nH]ccc6c5)c4c3)cc2)CC1` [Example 140, 1-(4-{4-[3-(1H-indol-5-yl)-1H-pyrrolo[2,3-b]pyridin-5-yl]-benzyl}-piperazin-1-yl)-ethanone] was less than 6.00.
For the compound `COc1cc(-c2cnc3[nH]cc(-c4ccc(N)nc4)c3c2)cc(OC)c1OC` [Example 18, 5-(5-(3,4,5-trimethoxyphenyl)-1H-pyrrolo[2,3-b]pyridin-3-yl)pyridin-2-amine], in data set [1], the “AUC Brain” value is given as “− (− indicates <500)”. Also, on MLK3, the negative-log IC50 (pIC50) is greater than 7.00.
Take `O=C(CC1CC1)N1CCN(Cc2ccc(-c3cnc4[nH]cc(-c5ccc6[nH]ccc6c5)c4c3)cc2)CC1` [Example 203]: the pIC50 at MLK3 was greater than 7.00.
Regarding `CCC(=O)N1CCN(Cc2ccc(-c3cnc4[nH]cc(-c5ccc6[nH]ccc6c5)c4c3)cc2)CC1` [Example 197], the negative-log IC50 (pIC50) on MLK3 is greater than 7.00.

Values taken from patent US10485800B2, “Mixed lineage kinase inhibitors for HIV/AIDS therapies” (UNIVERSITY OF ROCHESTER, priority 2012, dated 2019).
